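Exposure lasted 48 hours, with cells grown in 96-well plates and compounds tested at five concentrations. GI50: concentration for 50% inhibition of growth.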 Active and inactive are the calls of the source. Cut-off read from the data, not from the text of the source: active = GI50 up to about 1.1 µM and inactive = higher.
Assays:
Assay in all cases: NCI tumour cell line growth inhibition, 48 h
UACC-62 = tested on: UACC-62
T47D = tested on: T47D
SF-539 = tested on: SF-539
SK-OV-3 = tested on: SK-OV-3
NCI-H460 = tested on: NCI-H460
NCI-H226 = tested on: NCI-H226
MCF7 = tested on: MCF7
SNB-19 = tested on: SNB-19
RPMI-8226 = tested on: RPMI-8226
NCI/ADR-RES = tested on: NCI/ADR-RES
SNB-75 = tested on: SNB-75
CAKI-1 = tested on: CAKI-1
NCI-H522 = tested on: NCI-H522
HL-60 = tested on: HL-60
HOP-92 = tested on: HOP-92
MDA-MB-435 = tested on: MDA-MB-435
UACC-257 = tested on: UACC-257
SN12C = tested on: SN12C
ACHN = tested on: ACHN
OVCAR-5 = tested on: OVCAR-5

Row | Structure (SMILES) | GI50 (UACC-62) | GI50 (T47D) | GI50 (SF-539) | GI50 (SK-OV-3) | GI50 (NCI-H460) | GI50 (NCI-H226) | GI50 (MCF7) | GI50 (SNB-19) | GI50 (RPMI-8226) | GI50 (NCI/ADR-RES) | GI50 (SNB-75) | GI50 (CAKI-1) | GI50 (NCI-H522) | GI50 (HL-60) | GI50 (HOP-92) | GI50 (MDA-MB-435) | GI50 (UACC-257) | GI50 (SN12C) | GI50 (ACHN) | GI50 (OVCAR-5)
1 | Oc1cc(-c2cccc(OC(F)(F)F)c2)nc2cc3c(cc12)OCO3 | 0.123 µM (active) | 55.7 µM (inactive) | 0.084 µM (active) | 0.282 µM (active) | 0.0877 µM (active) | 0.239 µM (active) | 0.135 µM (active) | 0.0938 µM (active) | 0.0508 µM (active) | 0.0334 µM (active) | 0.568 µM (active) | 0.0885 µM (active) | 0.0441 µM (active) | 0.0131 µM (active) | 1.05 µM (active) | < 0.0156 µM (active) | 1.68 µM (inactive) | 0.169 µM (active) | > 32.7 µM (inactive) | –
2 | CC1CCN(CC(=O)N2c3ccccc3Sc3cc4ccccc4cc32)CC1 | > 100 µM (inactive) | > 100 µM (inactive) | > 100 µM (inactive) | > 100 µM (inactive) | 37.5 µM (inactive) | > 100 µM (inactive) | 47.5 µM (inactive) | > 100 µM (inactive) | > 100 µM (inactive) | > 100 µM (inactive) | > 100 µM (inactive) | > 100 µM (inactive) | > 100 µM (inactive) | 24.7 µM (inactive) | > 100 µM (inactive) | > 100 µM (inactive) | > 100 µM (inactive) | 38.7 µM (inactive) | > 100 µM (inactive) | > 100 µM (inactive)
3 | CC1=NN(c2ccccc2)C(=O)C1/N=N/c1ccc(S(N)(=O)=O)cc1 (stereo not given) | > 100 µM (inactive) | > 100 µM (inactive) | > 100 µM (inactive) | > 100 µM (inactive) | > 100 µM (inactive) | > 100 µM (inactive) | > 100 µM (inactive) | > 100 µM (inactive) | > 100 µM (inactive) | > 100 µM (inactive) | > 100 µM (inactive) | > 100 µM (inactive) | > 100 µM (inactive) | > 100 µM (inactive) | > 100 µM (inactive) | > 100 µM (inactive) | > 100 µM (inactive) | > 100 µM (inactive) | > 100 µM (inactive) | > 100 µM (inactive)
4 | CCCNC(=S)N/N=C1\C(=O)Nc2ccccc21 | > 100 µM (inactive) | > 100 µM (inactive) | > 100 µM (inactive) | > 100 µM (inactive) | > 100 µM (inactive) | > 100 µM (inactive) | > 100 µM (inactive) | > 100 µM (inactive) | > 100 µM (inactive) | > 100 µM (inactive) | > 100 µM (inactive) | > 100 µM (inactive) | > 100 µM (inactive) | > 100 µM (inactive) | > 100 µM (inactive) | > 100 µM (inactive) | > 100 µM (inactive) | > 100 µM (inactive) | > 100 µM (inactive) | > 100 µM (inactive)
5 | O=C1c2ccccc2C(=O)c2c(NC(=O)C(Cl)CCl)cccc21 (stereo not given) | 10.1 µM (inactive) | 2.75 µM (inactive) | 4.83 µM (inactive) | 19 µM (inactive) | 6.32 µM (inactive) | 17.5 µM (inactive) | 0.785 µM (active) | 15.2 µM (inactive) | 0.628 µM (active) | 23.1 µM (inactive) | 10.5 µM (inactive) | 16.3 µM (inactive) | 2.16 µM (inactive) | 0.361 µM (active) | 3.97 µM (inactive) | 7.11 µM (inactive) | 14.7 µM (inactive) | 7.67 µM (inactive) | 13.8 µM (inactive) | 15.6 µM (inactive)
6 | Cn1c2ccccc2c(=NNc2ccc(S(N)(=O)=O)cc2)c2ccccc21 | 14.7 µM (inactive) | 5.45 µM (inactive) | 22.5 µM (inactive) | 20.2 µM (inactive) | 9.18 µM (inactive) | 10.9 µM (inactive) | 13.6 µM (inactive) | 27.6 µM (inactive) | 9.35 µM (inactive) | 14.1 µM (inactive) | 15.1 µM (inactive) | 15.7 µM (inactive) | 11.2 µM (inactive) | 2.7 µM (inactive) | 8.85 µM (inactive) | 16.2 µM (inactive) | 17.1 µM (inactive) | 18.4 µM (inactive) | 8.05 µM (inactive) | 24.4 µM (inactive)
7 | Cc1ccc(/C=C2\N=C(N3CCOCC3)NC2=O)cc1 | > 100 µM (inactive) | > 100 µM (inactive) | > 100 µM (inactive) | > 100 µM (inactive) | – | > 100 µM (inactive) | > 100 µM (inactive) | > 100 µM (inactive) | > 100 µM (inactive) | > 100 µM (inactive) | > 100 µM (inactive) | > 100 µM (inactive) | > 100 µM (inactive) | > 100 µM (inactive) | > 100 µM (inactive) | > 100 µM (inactive) | > 100 µM (inactive) | > 100 µM (inactive) | > 100 µM (inactive) | > 100 µM (inactive)
8 | COc1cc(NS(C)(=O)=O)ccc1NCc1c[nH]c2ccc3nc(C)ccc3c12 | 40.6 µM (inactive) | 24.2 µM (inactive) | 78.2 µM (inactive) | 96.4 µM (inactive) | 68.1 µM (inactive) | 45.7 µM (inactive) | 36.1 µM (inactive) | 77.8 µM (inactive) | 17.1 µM (inactive) | > 100 µM (inactive) | 22.8 µM (inactive) | 20.1 µM (inactive) | 28.4 µM (inactive) | 8.45 µM (inactive) | 40.6 µM (inactive) | 30.2 µM (inactive) | 47.8 µM (inactive) | 60.5 µM (inactive) | 33.9 µM (inactive) | 39.5 µM (inactive)
9 | c1ccc2c(c1)[C@@H]1O[C@@H]1[C@@]13O[C@@]21[C@H]1O[C@H]1c1ccccc13 | 12.2 µM (inactive) | 17.8 µM (inactive) | 16.5 µM (inactive) | 21.5 µM (inactive) | 14.7 µM (inactive) | 15.3 µM (inactive) | 10.1 µM (inactive) | 16.1 µM (inactive) | 9.16 µM (inactive) | 16.3 µM (inactive) | 12.9 µM (inactive) | 10.8 µM (inactive) | 10.8 µM (inactive) | 13.3 µM (inactive) | 9.89 µM (inactive) | 13.7 µM (inactive) | 17.6 µM (inactive) | 17.7 µM (inactive) | 12.9 µM (inactive) | 17.1 µM (inactive)
10 | CCN(C(=O)/C=C/c1ccco1)c1ccccc1 | > 100 µM (inactive) | > 100 µM (inactive) | – | > 100 µM (inactive) | > 100 µM (inactive) | > 100 µM (inactive) | > 100 µM (inactive) | > 100 µM (inactive) | 75.2 µM (inactive) | > 100 µM (inactive) | > 100 µM (inactive) | > 100 µM (inactive) | > 100 µM (inactive) | 21.9 µM (inactive) | > 100 µM (inactive) | > 100 µM (inactive) | > 100 µM (inactive) | > 100 µM (inactive) | > 100 µM (inactive) | > 100 µM (inactive)
11 | N#CCc1nc(-c2cc3c(ccc4ccccc43)oc2=O)cs1 | 21.7 µM (inactive) | 27.8 µM (inactive) | 21.5 µM (inactive) | 30.3 µM (inactive) | 43.1 µM (inactive) | 24.7 µM (inactive) | 38.3 µM (inactive) | 19.1 µM (inactive) | > 100 µM (inactive) | 23 µM (inactive) | 0.507 µM (active) | 50.1 µM (inactive) | 13 µM (inactive) | > 100 µM (inactive) | 20.3 µM (inactive) | > 100 µM (inactive) | 26.9 µM (inactive) | 57.8 µM (inactive) | 27.5 µM (inactive) | > 100 µM (inactive)
12 | c1ccc(/N=C2\c3ccsc3/C(=N/c3ccccc3)c3ccsc32)cc1 | 1.84 µM (inactive) | 1.52 µM (inactive) | 1.99 µM (inactive) | 6.59 µM (inactive) | 2.01 µM (inactive) | 5.57 µM (inactive) | 2.62 µM (inactive) | 1.98 µM (inactive) | 1.94 µM (inactive) | 1.98 µM (inactive) | 1.2 µM (inactive) | 4.49 µM (inactive) | 1.98 µM (inactive) | 1.61 µM (inactive) | 2.61 µM (inactive) | 0.213 µM (active) | 1.29 µM (inactive) | 1.58 µM (inactive) | 1.71 µM (inactive) | 1.67 µM (inactive)
13 | Cc1cn([C@H]2C[C@](C)(CO)N(C)O2)c(=O)[nH]c1=O | > 100 µM (inactive) | > 100 µM (inactive) | – | > 100 µM (inactive) | > 100 µM (inactive) | > 100 µM (inactive) | > 100 µM (inactive) | > 100 µM (inactive) | > 100 µM (inactive) | > 100 µM (inactive) | > 100 µM (inactive) | > 100 µM (inactive) | > 100 µM (inactive) | > 100 µM (inactive) | > 100 µM (inactive) | > 100 µM (inactive) | > 100 µM (inactive) | > 100 µM (inactive) | > 100 µM (inactive) | > 100 µM (inactive)
14 | O=C(O)C(F)(F)C(F)(F)C(F)(F)C(F)(F)C(=O)O | > 100 µM (inactive) | > 100 µM (inactive) | – | > 100 µM (inactive) | > 100 µM (inactive) | > 100 µM (inactive) | > 100 µM (inactive) | > 100 µM (inactive) | > 100 µM (inactive) | > 100 µM (inactive) | > 100 µM (inactive) | > 100 µM (inactive) | > 100 µM (inactive) | > 100 µM (inactive) | > 100 µM (inactive) | > 100 µM (inactive) | > 100 µM (inactive) | > 100 µM (inactive) | > 100 µM (inactive) | > 100 µM (inactive)

From ChEMBL document CHEMBL1201862, “PubChem BioAssay data set” (2004)
